Measurements taken from article PMC8307404, “Crystal Structure-Guided Design of Bisubstrate Inhibitors and Photoluminescent Probes for Protein Kinases of the PIM Family” (Molecules, 2021).
Several values for one entry are separate records, joined by “and”; a condition that tells them apart may be missing. Equal entries are not always repeated. Square brackets hold non-standard residues; d marks the D form. Peptide text beside a SMILES is read from it. * marks the point of attachment. X7 = Nc1nccc(-c2ccc(C(=O)*)s2)n1; Ahx = NCCCCCC(=O)O

Columns and labels:
PKAcα = target: T1, PKAcα (Homo sapiens, UniProt P17612); experiment: Binding/displacement assay with FA or TGLI readout; conditions: TGLI or FA readout; mean ± SEM, N = 2; read-out: KD, nM (PKAcα)
T1 construct: purchased Biaffin GmbH & Co KG (Kassel, Germany)
Method: The affinities of the compounds toward the PIM family PKs were determined in a binding/displacement assay with measurement of fluorescence anisotropy (FA) and time-gated luminescence intensity (TGLI) (Table 2). For the initial assessment of the selectivity of compounds, PKAcα was used as the reference basophilic kinase.
Optical FA measurement modules for 5-TAMRA-labeled compounds (ex. 540(20) nm, em. 590(20) nm and 590(20) nm), for Cy5-labeled compounds (ex. 590(50) nm, em. 675(50) nm and 675(50) nm), and optical TGLI measurement modules for ARC-1451 (ex. 330(60) nm, em. 590(50) nm), for ARC-1188 (ex. 330(60) nm, em. 675(50) nm) were used for assays with PHERAstar microplate reader (BMG Labtech; Ortenberg, Germany). TGLI measurements were performed with a delay time of 50 μs and integration of the signal for 150 μs. In each measurement, emission from 200 flashes of excitation radiation was collected. The measurement solutions (20 µL volumes) were prepared in black 384-well low-binding surface microtiter plates (Corning #4514; Kennebunk, ME, USA) and incubated for 20 min at 30 °C before the measurements. The assay buffer contained HEPES hemisodium salt (pH 7.4, 50 mM), NaCl (150 mM), dithiothreitol (5 mM), bovine serum albumin (0.5 mg/mL), and Tween-20 (0.005%). GraphPad Prism v. 5.04 (GraphPad Software, Inc.) was used for data analysis with FA [32] or TGLI [33] readouts. Representative titration curves can be found in Supplementary Figure S7.

PIM3 [1] = target: T2, PIM3 (Homo sapiens, UniProt Q86V86); experiment: Thermal shift assay; format: binding; design: made in house; conditions: 2 μM kinase, 12.5 μM compound; mean ± SEM, N = 2
Method: (§1) Thermal shift assay measurements were performed following the previously published protocol [61] using a real-time PCR instrument (Mx3005p RT-PCR, Stratagene; La Jolla, California). […] The measurements were carried out in PCR low-profile microplate wells (ABgene; Portsmouth, NH, USA). The temperature scan was run from 25 to 95 °C at 1 °C/min. GraphPad Prism v. 6.0 (GraphPad Software, Inc.; San Diego, CA, USA) and Microsoft Excel v. 2007 (Microsoft Office; Redmond, WA, USA) were used for data processing and analysis.

PIM2 [2] = target: T3, PIM2 (Homo sapiens, UniProt Q9P1W9); experiment: Thermal shift assay; format: binding; design: made in house; conditions: 2 μM kinase, 12.5 μM compound; mean ± SEM, N = 2
Method: as §1

PIM1 [3] = target: T4, PIM1 (Homo sapiens, UniProt P11309); experiment: Thermal shift assay; format: binding; design: made in house; conditions: 2 μM kinase, 12.5 μM compound; mean ± SEM, N = 2
Method: as §1

PIM3 [4] = target: T2, PIM3; experiment: Binding/displacement assay with FA or TGLI readout; design: made in house; conditions: mean ± SEM, N = 2
Method: (§2) The affinities of the compounds toward the PIM family PKs were determined in a binding/displacement assay with measurement of fluorescence anisotropy (FA) and time-gated luminescence intensity (TGLI) (Table 2). For the initial assessment of the selectivity of compounds, PKAcα was used as the reference basophilic kinase [10].
(§3) Optical FA measurement modules for 5-TAMRA-labeled compounds (ex. 540(20) nm, em. 590(20) nm and 590(20) nm), for Cy5-labeled compounds (ex. 590(50) nm, em. 675(50) nm and 675(50) nm), and optical TGLI measurement modules for ARC-1451 (ex. 330(60) nm, em. 590(50) nm), for ARC-1188 (ex. 330(60) nm, em. 675(50) nm) were used for assays with PHERAstar microplate reader (BMG Labtech; Ortenberg, Germany). TGLI measurements were performed with a delay time of 50 μs and integration of the signal for 150 μs. In each measurement, emission from 200 flashes of excitation radiation was collected. The measurement solutions (20 µL volumes) were prepared in black 384-well low-binding surface microtiter plates (Corning #4514; Kennebunk, ME, USA) and incubated for 20 min at 30 °C before the measurements. The assay buffer contained HEPES hemisodium salt (pH 7.4, 50 mM), NaCl (150 mM), dithiothreitol (5 mM), bovine serum albumin (0.5 mg/mL), and Tween-20 (0.005%). […] 5.04 (GraphPad Software, Inc.) was used for data analysis with FA [32] or TGLI [33] readouts.

PIM2 [5] = target: T3, PIM2; experiment: Binding/displacement assay with FA or TGLI readout; design: made in house; conditions: mean ± SEM, N = 2
Method: as §2, §3

PIM1 [6] = target: T4, PIM1; experiment: Binding/displacement assay with FA or TGLI readout; design: made in house
Method: as §2, §3

endoprotease furin = target: endoprotease furin; design: method as in PMID 26110264; conditions: cited from earlier work
PIM-1-TagRFP = target: T5, PIM-1-TagRFP (Homo sapiens, UniProt P11309); experiment: Co-localization study, TIRF microscopy; format: cell-based; conditions: live U2OS cells, 48 h transfection, 1 h incubation with 2.5 or 5 μM probe
T5 construct: expressed in transfected cells; host or cells: U2OS (human osteosarcoma), transient, 48 h, FuGENE HD

U2OS cells = experiment: Cellular uptake of fluorescent probes, live-cell microscopy; format: cell-based, human; conditions: 1–5 μM, 10–60 min
Method: For studies of the general internalization properties of ARCs, the cells were seeded at the density of 12,000–25,000 cells per well onto an Ibidi μ-plate (96-well; Ibidi GmbH, Planegg, Germany). After 24 h incubation in growth medium, the cells were treated for 10 min, 30 min, or 1 h with dilutions of compounds 6, 7, 8, or ARC-2090 (5 μM, 2.5 μM, or 1 μM final concentration) in the phenol red-free DMEM/Ham’s F12 medium supplemented with 2% ccFBS and 2 mM glutamine. Next, cells were washed twice with PBS, and imaging medium (MEMO + Supplement A 1:100) was applied subsequently. Cells were imaged with Cytation 5 wide-field microscope (BioTek; Winooski, VT, USA) using 20× air objective and the following settings: for Cy5, 623 nm LED (intensity: 2) and Cy5 filter cube (685 nm) with 104 ms integration time and detector gain value of 2; for TAMRA, 523 nm LED (intensity: 7) and RFP filter cube (593 nm) with 252 ms integration time and detector gain value of 16; for bright-field, white LED with intensity 6, 186 ms integration time and detector gain value of 15. Four independent experiments were performed.

[7] = KD, nM (PIM-1), TGLI or FA readout, mean ± SEM, N = 2

T3 sequence (Q9P1W9 whole entry): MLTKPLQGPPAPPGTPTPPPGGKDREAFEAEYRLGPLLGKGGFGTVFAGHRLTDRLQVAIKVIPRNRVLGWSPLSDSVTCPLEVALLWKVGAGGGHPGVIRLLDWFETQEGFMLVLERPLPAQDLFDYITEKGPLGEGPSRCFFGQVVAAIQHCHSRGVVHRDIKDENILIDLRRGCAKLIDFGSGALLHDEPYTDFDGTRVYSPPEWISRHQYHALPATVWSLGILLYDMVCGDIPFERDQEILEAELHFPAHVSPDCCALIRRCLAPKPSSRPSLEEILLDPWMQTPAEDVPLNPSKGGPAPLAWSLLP
T4 sequence (P11309 whole entry): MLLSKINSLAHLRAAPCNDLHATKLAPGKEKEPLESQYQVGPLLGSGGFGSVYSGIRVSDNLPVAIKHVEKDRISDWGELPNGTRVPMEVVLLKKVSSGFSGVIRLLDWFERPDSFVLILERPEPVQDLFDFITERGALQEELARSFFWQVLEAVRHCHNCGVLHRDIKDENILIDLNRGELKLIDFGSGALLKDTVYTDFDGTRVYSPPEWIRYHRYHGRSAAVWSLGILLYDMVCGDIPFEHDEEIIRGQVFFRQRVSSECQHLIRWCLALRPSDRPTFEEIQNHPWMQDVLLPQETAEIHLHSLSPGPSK
T5 sequence (P11309 whole entry): as above

Row | Kd (PKAcα) | Kd (PIM3 [4]) | Kd (PIM2 [5]) | Kd (PIM1 [6]; [7]) | Compound | further results
1 | > 83000 nM |  |  |  | N[C@@H]1CCCN(c2c(/C=C3\SC(=O)NC3=O)cccc2-c2ccccc2)C1 [AZD1208, reference compound] | 
2 |  |  |  |  | C[C@@H](NC(=O)CCCCCNC(=O)c1ccc(-c2ccnc(N)n2)s1)C(=O)N[C@H](CCCNC(=N)N)C(=O)N[C@H](CCCNC(=N)N)C(=O)N[C@H](CCCNC(=N)N)C(=O)N[C@H](CCCNC(=N)N)C(=O)N[C@H](CCCNC(=N)N)C(=O)N[C@H](CCCNC(=N)N)C(=O)N[C@H](CCCCN)C(=O)NCC(=O)O [ARC-1141, AMTH-Ahx-D-Ala-(D-Arg)6-D-Lys-Gly] ({X7-Ahx}-[dA][dR][dR][dR][dR][dR][dR][dK]G-OH) | ∆Tm, °C PIM-3 (PIM3 [1]): 4.9 ± 0.4 °C; ∆Tm, °C PIM-2 (PIM2 [2]): 5.9 ± 0.6 °C; ∆Tm, °C PIM-1 (PIM1 [3]): 5.2 ± 0.4 °C
3 | > 20600 nM | 30.4 ± 6.5 nM | 447 ± 52 nM | 37.8 ± 9 nM | N=C(N)NCCC[C@@H](NC(=O)CNC(=O)[C@@H](CCCNC(=N)N)NC(=O)[C@@H](CCCNC(=N)N)NC(=O)CCCCCCCNC(=O)[C@@H]1C[C@@H](O)CN1Cc1nc2c(sc3ccc(Br)cc32)c(=O)[nH]1)C(=O)N[C@H](CCCCN)C(N)=O [Compound 5, BBTP-Hyp-Aoc-(D-Arg)2-Gly-D-Arg-D-Lys-NH2] | fold lower selectivity toward PIM-1 than compound 2 (PIM1 [6]; PIM-1 vs PKAcα): over 4 fold
4 |  |  |  |  | CN1CCC(CNc2ccc3ncc(-c4cccc(OC(F)(F)F)c4)n3n2)CC1 [SGI-1776, reference compound] | ∆Tm, °C PIM-3 (PIM3 [1]): 8.2 ± 0.3 °C; ∆Tm, °C PIM-2 (PIM2 [2]): 8.1 ± 0.6 °C; ∆Tm, °C PIM-1 (PIM1 [3]): 9.5 °C and 9.5 ± 0.4 °C
5 |  |  |  |  | (D-Arg)9-NH2 | Kd (endoprotease furin): 1.3 nM
6 |  |  |  |  | (D-Arg)6-NH2 | Kd (endoprotease furin): 106 nM
7 | > 89000 nM | > 16400 nM | > 46000 nM | > 11500 nM | N=C(N)NCCC[C@@H](N)C(=O)N[C@H](CCCNC(=N)N)C(=O)NCC(=O)N[C@H](CCCNC(=N)N)C(=O)N[C@H](CCCCN)C(N)=O [PIM peptide, (D-Arg)2-Gly-D-Arg-D-Lys-NH2] | Kd (PIM1 [6]; KD toward PIM-1, as worded in text): > 10000 nM
8 | > 18200 nM | 6.6 ± 1.4 nM | 20 ± 4 nM | 1.8 ± 0.3 nM | N=C(N)NCCC[C@@H](NC(=O)CNC(=O)[C@@H](CCCNC(=N)N)NC(=O)[C@@H](CCCNC(=N)N)NC(=O)CCCCc1cn(Cc2nc3c(sc4ccc(Br)cc43)c(=O)[nH]2)nn1)C(=O)N[C@H](CCCCN)C(N)=O [Compound 4, BBTP-Tap-(D-Arg)2-Gly-D-Arg-D-Lys-NH2] | fold higher selectivity as compared to compound 3 (PIM1 [6]; PIM-1 vs PKAcα): over 5 fold
9 | > 303 nM | 2.6 ± 0.3 nM | 5.2 ± 0.9 nM | 1.7 ± 0.4 nM | CN1C(=CC=CC=CC2=[N+](CCCCCC(=O)NCCCC[C@@H](NC(=O)[C@@H](CCCNC(=N)N)NC(=O)CNC(=O)[C@@H](CCCNC(=N)N)NC(=O)[C@@H](CCCNC(=N)N)NC(=O)CCCCCCCNCc3nc4c(sc5ccc(Br)cc54)c(=O)[nH]3)C(N)=O)c3ccccc3C2(C)C)C(C)(C)c2ccccc21 [Compound 6, BBTP-Aoc-(D-Arg)2-Gly-D-Arg-[D-Lys(Cy5)]-NH2] | Manders' coefficient, co-localization with PIM-1-TagRFP (PIM-1-TagRFP): 0.72 ± 0.06; ability to cross the plasma membrane / internalization (U2OS cells): efficiently internalized into the cells
10 |  |  |  |  | BBTP-Hyp-Ahx-(D-Arg)9-D-Lys-NH2 [ARC-3119] | ∆Tm, °C PIM-3 (PIM3 [1]): 11.9 ± 0.2 °C; ∆Tm, °C PIM-2 (PIM2 [2]): 13.9 ± 0.6 °C; ∆Tm, °C PIM-1 (PIM1 [3]): 13.7 ± 0.4 °C
11 | > 1080 nM | 8.3 ± 1 nM | 28.2 ± 6.7 nM | 21.9 ± 4 nM | CN1C(=CC=CC=CC2=[N+](CCCCCC(=O)NCCCC[C@@H](NC(=O)[C@@H](CCCNC(=N)N)NC(=O)CNC(=O)[C@@H](CCCNC(=N)N)NC(=O)[C@@H](CCCNC(=N)N)NC(=O)CCCCc3cn(Cc4nc5c(sc6ccc(Br)cc65)c(=O)[nH]4)nn3)C(N)=O)c3ccccc3C2(C)C)C(C)(C)c2ccccc21 [Compound 7, BBTP-Tap-(D-Arg)2-Gly-D-Arg-[D-Lys(Cy5)]-NH2] | Manders' coefficient, co-localization with PIM-1-TagRFP (PIM-1-TagRFP): 0.43 ± 0.16; ability to cross the plasma membrane / internalization (U2OS cells): efficiently internalized into the cells
